Reference: ChEMBL document CHEMBL1201862, “PubChem BioAssay data set” (2004)
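The compound was tested at five concentrations on cells cultured in 96-well plates, with a 48-hour exposure period. GI50 is the concentration that inhibits growth by half.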 Activity calls are given as the source filed them. No stated cut-off is given here; in the data, active = GI50 up to about 1.1 µM and inactive = higher.

Legend:
Assay in all cases: growth of human tumour cells (NCI), 48 h
T47D = test system: T47D
COLO 205 = test system: COLO 205
NCI-H23 = test system: NCI-H23
M14 = test system: M14
SN12C = test system: SN12C
HCT-116 = test system: HCT-116
SNB-75 = test system: SNB-75
EKVX = test system: EKVX
NCI-H226 = test system: NCI-H226
HCC 2998 = test system: HCC 2998
MDA-MB-231 = test system: MDA-MB-231
HOP-62 = test system: HOP-62
A549 = test system: A549
SF-539 = test system: SF-539
OVCAR-4 = test system: OVCAR-4
MDA-N = test system: MDA-N
SK-MEL-28 = test system: SK-MEL-28
NCI-H460 = test system: NCI-H460
SF-295 = test system: SF-295
SK-MEL-2 = test system: SK-MEL-2
UACC-62 = test system: UACC-62
SF-268 = test system: SF-268
RXF 393 = test system: RXF 393
OVCAR-8 = test system: OVCAR-8
LOX IMVI = test system: LOX IMVI
KM12 = test system: KM12
OVCAR-5 = test system: OVCAR-5
HCT-15 = test system: HCT-15
NCI/ADR-RES = test system: NCI/ADR-RES
MOLT-4 = test system: MOLT-4
A498 = test system: A498
DU-145 = test system: DU-145
NCI-H522 = test system: NCI-H522
CCRF-CEM = test system: CCRF-CEM
K562 = test system: K562
UACC-257 = test system: UACC-257
OVCAR-3 = test system: OVCAR-3
SK-MEL-5 = test system: SK-MEL-5
PC-3 = test system: PC-3
ACHN = test system: ACHN

In the case of `O=C1Oc2ccccc2C(=O)/C1=C/NC(=S)Nc1ccccc1`, the GI50 (T47D) is reported as 5.96 µM (inactive), the GI50 (COLO 205) is reported as 44.7 µM (inactive) and the GI50 (NCI-H23) is reported as 61.4 µM (inactive). For the same molecule, the GI50 (M14) was 27 µM (inactive), the GI50 (SN12C) was 40.1 µM (inactive) and the GI50 (HCT-116) was 34.8 µM (inactive). The GI50 (SNB-75) was 20.4 µM (inactive), the GI50 (EKVX) was 56.5 µM (inactive) and the GI50 (NCI-H226) was 65.9 µM (inactive). The GI50 (HCC 2998) was 40 µM (inactive), the GI50 (MDA-MB-231) was 29 µM (inactive) and the GI50 (HOP-62) was 33.6 µM (inactive). For the same molecule, the GI50 (A549) was 48.8 µM (inactive), the GI50 (SF-539) was 28.7 µM (inactive) and the GI50 (OVCAR-4) was 39.6 µM (inactive). The GI50 (MDA-N) was 37.8 µM (inactive), the GI50 (SK-MEL-28) was 44.2 µM (inactive) and the GI50 (NCI-H460) was 32.1 µM (inactive). The GI50 (SF-295) was 52.2 µM (inactive), the GI50 (SK-MEL-2) was 15.1 µM (inactive) and the GI50 (UACC-62) was 0.834 µM (active). The GI50 (SF-268) was 22.3 µM (inactive), the GI50 (RXF 393) was 0.119 µM (active) and the GI50 (OVCAR-8) was 44.3 µM (inactive). For the same molecule, the GI50 (LOX IMVI) was 51.1 µM (inactive), the GI50 (KM12) was 49.4 µM (inactive) and the GI50 (OVCAR-5) was 80.4 µM (inactive). The GI50 (HCT-15) was 28.3 µM, the GI50 (NCI/ADR-RES) was 38.5 µM (inactive) and the GI50 (MOLT-4) was 31.8 µM (inactive). The GI50 (A498) was 24.6 µM (inactive), the GI50 (DU-145) was 46.1 µM (inactive) and the GI50 (NCI-H522) was 30.1 µM (inactive). The GI50 (CCRF-CEM) was 28.5 µM (inactive), the GI50 (K562) was 56.4 µM (inactive) and the GI50 (UACC-257) was 77.6 µM (inactive). The GI50 (OVCAR-3) was 25.4 µM (inactive), the GI50 (SK-MEL-5) was 42.5 µM (inactive) and the GI50 (PC-3) was 55.6 µM (inactive). For the same molecule, the GI50 (ACHN) was 23.6 µM (inactive).
